Results published in PubChem BioAssay (NCI).
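Method: 48-hour compound exposure of cells in 96-well plates, five concentrations, linear interpolation of endpoints. GI50: concentration for 50% inhibition of growth. TGI is the concentration that stops growth completely.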

Experiments:
Assay in all cases: NCI tumour cell line growth inhibition, 48 h
[1] = system: 786-0 renal
[2] = system: A498 renal
[3] = system: A549 NSCLC
[4] = system: ACHN renal
[5] = system: BT-549 breast
[6] = system: CAKI-1 renal
[7] = system: CCRF-CEM leukemia
[8] = system: COLO 205 colon
[9] = system: DU-145 prostate
[10] = system: HCC-2998 colon
[11] = system: HCT-116 colon
[12] = system: HCT-15 colon
[13] = system: HL-60(TB) leukemia
[14] = system: HOP-62 NSCLC
[15] = system: HS 578T breast
[16] = system: HT29 colon
[17] = system: IGROV1 ovarian
[18] = system: K-562 leukemia
[19] = system: KM12 colon
[20] = system: LOX IMVI melanoma
[21] = system: M14 melanoma
[22] = system: MALME-3M melanoma
[23] = system: MCF7 breast
[24] = system: MDA-MB-231 breast
[25] = system: MDA-MB-435
[26] = system: MOLT-4 leukemia
[27] = system: NCI-H226 lung
[28] = system: NCI-H23 lung
[29] = system: NCI-H460 lung
[30] = system: NCI-H522 lung
[31] = system: NCI/ADR-RES ovarian
[32] = system: OVCAR-3 ovarian
[33] = system: OVCAR-4 ovarian
[34] = system: OVCAR-5 ovarian
[35] = system: OVCAR-8 ovarian
[36] = system: PC-3 prostate
[37] = system: RPMI-8226 leukemia
[38] = system: RXF 393 renal
[39] = system: SF-268 CNS
[40] = system: SF-295 CNS
[41] = system: SF-539 CNS
[42] = system: SK-MEL-2 melanoma
[43] = system: SK-MEL-28 melanoma
[44] = system: SK-MEL-5 melanoma
[45] = system: SK-OV-3 ovarian
[46] = system: SN12C renal
[47] = system: SNB-19 CNS
[48] = system: SNB-75 CNS
[49] = system: SR leukemia
[50] = system: SW-620 colon
[51] = system: T-47D breast
[52] = system: TK-10 renal
[53] = system: U251 CNS
[54] = system: UACC-257 melanoma
[55] = system: UACC-62 melanoma
[56] = system: UO-31 renal

`COc1cccc(C2=C(c3c(C)n(C)c4ccccc34)C(=O)NC2=O)c1` was tested, and the GI50 [1] was > 25 µM, the TGI [1] was > 25 µM and the GI50 [2] was 8.99 µM. The TGI [2] was > 25 µM, the GI50 [3] was 16.4 µM and the TGI [3] was > 25 µM. The GI50 [4] was > 25 µM, the TGI [4] was > 25 µM and the GI50 [5] was > 21.7 µM. The TGI [5] was > 25 µM, the GI50 [6] was > 25 µM and the TGI [6] was > 25 µM. For the same compound, the GI50 [7] was > 25 µM, the TGI [7] was > 25 µM and the GI50 [8] was 14.8 µM. For the same compound, the TGI [8] was > 25 µM, the GI50 [9] was > 25 µM and the TGI [9] was > 25 µM. The GI50 [10] was > 25 µM, the TGI [10] was > 25 µM and the GI50 [11] was 19.7 µM. The TGI [11] was > 25 µM, the GI50 [12] was 12.1 µM and the TGI [12] was > 25 µM. The GI50 [13] was > 17.1 µM, the TGI [13] was > 25 µM and the GI50 [14] was > 25 µM. For the same compound, the TGI [14] was > 25 µM, the GI50 [15] was 12.1 µM and the TGI [15] was > 25 µM. The GI50 [16] was 14.4 µM, the TGI [16] was > 25 µM and the GI50 [17] was > 22.3 µM. The TGI [17] was > 25 µM, the GI50 [18] was 11 µM and the TGI [18] was > 25 µM. For the same compound, the GI50 [19] was 15.5 µM, the TGI [19] was > 25 µM and the GI50 [20] was > 25 µM. The TGI [20] was > 25 µM, the GI50 [21] was 21.1 µM and the TGI [21] was > 25 µM. For the same compound, the GI50 [22] was > 21.2 µM, the TGI [22] was > 25 µM and the GI50 [23] was 17.5 µM. The TGI [23] was > 25 µM, the GI50 [24] was > 25 µM and the TGI [24] was > 25 µM. The GI50 [25] was 7.33 µM, the TGI [25] was > 25 µM and the GI50 [26] was 16.1 µM. For the same compound, the TGI [26] was > 25 µM, the GI50 [27] was > 19.1 µM and the TGI [27] was > 25 µM. The GI50 [28] was > 25 µM, the TGI [28] was > 25 µM and the GI50 [29] was > 25 µM. For the same compound, the TGI [29] was > 25 µM, the GI50 [30] was 15.3 µM and the TGI [30] was > 25 µM. For the same compound, the GI50 [31] was 14 µM, the TGI [31] was > 25 µM and the GI50 [32] was > 23.9 µM. The TGI [32] was > 25 µM, the GI50 [33] was > 21.5 µM and the TGI [33] was > 25 µM. For the same compound, the GI50 [34] was > 25 µM, the TGI [34] was > 25 µM and the GI50 [35] was > 25 µM. The TGI [35] was > 25 µM, the GI50 [36] was 16.3 µM and the TGI [36] was > 25 µM. For the same compound, the GI50 [37] was > 25 µM, the TGI [37] was > 25 µM and the GI50 [38] was 12 µM. For the same compound, the TGI [38] was > 25 µM, the GI50 [39] was > 23.1 µM and the TGI [39] was > 25 µM. For the same compound, the GI50 [40] was > 25 µM, the TGI [40] was > 25 µM and the GI50 [41] was > 25 µM. For the same compound, the TGI [41] was > 25 µM, the GI50 [42] was > 25 µM and the TGI [42] was > 25 µM. The GI50 [43] was 24.9 µM, the TGI [43] was > 25 µM and the GI50 [44] was 9.81 µM. For the same compound, the TGI [44] was > 25 µM, the GI50 [45] was > 25 µM and the TGI [45] was > 25 µM. The GI50 [46] was > 25 µM, the TGI [46] was > 25 µM and the GI50 [47] was > 25 µM. For the same compound, the TGI [47] was > 25 µM, the GI50 [48] was 6.63 µM and the TGI [48] was > 25 µM. The GI50 [49] was 11.8 µM, the TGI [49] was > 25 µM and the GI50 [50] was 12.4 µM. For the same compound, the TGI [50] was > 25 µM, the GI50 [51] was 8.83 µM and the TGI [51] was > 25 µM. The GI50 [52] was 24.2 µM, the TGI [52] was > 25 µM and the GI50 [53] was > 25 µM. For the same compound, the TGI [53] was > 25 µM, the GI50 [54] was > 25 µM and the TGI [54] was > 25 µM. The GI50 [55] was 12.3 µM, the TGI [55] was > 25 µM and the GI50 [56] was 14 µM. The TGI [56] was > 25 µM.
